Reference: patent publication US20260274891A1, “¿ OPIOID RECEPTOR AGONIST AND USE THEREOF” (CHENGDU AODA BIOTECHNOLOGY CO., LTD., priority 2023, published 2026)
pEC50: −log10 of the molar value. Like-named read-outs stand apart in the source and are kept apart here. Bridge positions count the residues as written; N and C are the ends. Square brackets hold non-standard residues; d marks the D form. Side chains are listed from the residue outwards. Peptide text beside a SMILES is read from it. I, II: the chains in the order shown. * marks the point of attachment. X28 = NCCCC[C@H](NC(=O)[C@H](CCCCN)NC(=O)C1(N)CCN(*)CC1)C(=O)O; X12 = CCOc1ccc(C[C@@H](NC(=O)[C@H](N)Cc2ccccc2)C(=O)*)cc1; Piperidinyl(4-NH2,4-CONH2) = NC(=O)C1(N)CCN(*)CC1; X10 = NCCCC[C@@H](NC(=O)C1(N)CCN(*)CC1)C(=O)O; X4 = NCCCC[C@H](NC(=O)C1(N)CCN(*)CC1)C(=O)O; X6 = NCCCC[C@H](NC(=O)C1(N)CCN(*)CC1)C(N)=O; dAla(cPr) = N[C@H](CC1CC1)C(=O)O; Api = NC1(C(=O)O)CCNCC1; iPr = CC(C)*

Molecular target: T1, human κ opioid receptor (OPRK1) (Homo sapiens, UniProt P41145)
T1 construct: expressed in transfected cells; host or cells: CHO-K1
Test: Determination of activities of κ receptor agonists: inhibition of forskolin-stimulated cAMP release (HTRF) in stably transfected CHO-K1 cells
Format: cell-based
Conditions: for Relative Activity %: relative to Difelikefalin = 100.0
Source text: Gi-coupled human κ opioid receptor (OPRK1), upon stimulation with its specific opioid receptor agonists, can inhibit the intracellular adenylate cyclase pathway, and decrease cAMP levels. Forskolin can stimulate cAMP release in cell lines highly expressing opioid receptors. By stimulating cell lines stably transfected with opioid receptors, the inhibitory effect of a test compound on forskolin-stimulated cAMP release can be measured to determine the activity of the compound. The relative light units (RLU) from the cells after stimulation with different doses were measured via the homogeneous time-resolved fluorescence technique (HTRF), and the EC50 value of the agonist was subsequently calculated. This activity determination method is a currently commonly used method for determining the activities of opioid receptor agonists at home and abroad.
A CHO-K1 cell line stably expressing opioid receptors was used. Stably transfected cells were stimulated with various concentrations of agonists (under the stimulation of a certain concentration of forskolin). The relative light units from the cells after stimulation with different doses were measured, from which the EC50 value of the agonist was subsequently obtained by calculation.

T1 sequence (P41145 whole entry): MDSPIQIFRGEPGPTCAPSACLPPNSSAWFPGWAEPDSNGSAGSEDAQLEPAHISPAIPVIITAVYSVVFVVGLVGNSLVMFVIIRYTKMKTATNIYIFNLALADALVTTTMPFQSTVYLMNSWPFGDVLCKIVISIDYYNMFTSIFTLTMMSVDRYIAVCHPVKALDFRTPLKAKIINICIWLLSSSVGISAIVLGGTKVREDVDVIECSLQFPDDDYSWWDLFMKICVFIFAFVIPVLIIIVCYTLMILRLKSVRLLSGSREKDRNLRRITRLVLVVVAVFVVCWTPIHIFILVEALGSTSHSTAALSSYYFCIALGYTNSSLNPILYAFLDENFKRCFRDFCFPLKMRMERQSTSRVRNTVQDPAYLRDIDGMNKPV

SMILES	pEC50	Relative Activity % [%]	pEC50 (CHO-K1 cell line stably expressing opioid receptors, forskolin-stimulated cAMP, HTRF, read-out: EC50)
CCc1ccc(C[C@@H](NC(=O)[C@H](N)Cc2ccccc2)C(=O)N[C@H](CC(C)C)C(=O)N[C@H](CCCCN)C(=O)N2CCC(N)(C(=O)N[C@H](CCCCN)C(=O)O)CC2)cc1 [Compound 134, D-Phe-D-Phe(4-Et)-D-Leu-D-Lys-4-aminopiperidine-4-carboxamide-D-Lys-OH]	9.88	457.6	–
CCOc1ccc(C[C@@H](NC(=O)[C@H](N)Cc2ccccc2)C(=O)N[C@H](CC(C)C)C(=O)N[C@H](CCCCN)C(=O)N2CCC(N)(C(=O)N[C@H](CCCCN)C(=O)N[C@H](CCCCN)C(=O)N[C@H](CCCCN)C(N)=O)CC2)cc1 [Compound 19, D-Phe-D-Tyr(Et)-D-Leu-D-Lys-4-aminopiperidine-4-carboxamide-D-Lys-D-Lys-D-Lys-NH2] (I: H-[Api][dK][dK][dK]-NH2 / II: H-[dF][dY](Et)[dL][dK]; amide I:1-II:C; N-terminus assumed)	10.32	1267.6	–
CC(C)C[C@@H](NC(=O)[C@@H](Cc1ccc(OC(C)C)cc1)NC(=O)[C@H](N)Cc1ccccc1)C(=O)N[C@H](CCCCN)C(=O)N1CCC(N)(C(=O)N[C@H](CCCCN)C(=O)O)CC1 [Compound 102, D-Phe-D-Tyr(Ipr)-D-Leu-D-Lys-4-aminopiperidine-4-carboxamide-D-Lys-OH] (H-[dF][dY](iPr)[dL][dK]-X10; N-terminus assumed)	10.14	831.8	–
CCOc1ccc(C[C@@H](NC(=O)[C@H](N)Cc2ccccc2)C(=O)N[C@H](CC(C)C)C(=O)N[C@H](CCCCN)C(=O)N2CCC(N)(C(=O)NCC(=O)NCC(=O)N[C@H](CCCCN)C(=O)O)CC2)cc1 [Compound 54, D-Phe-D-Tyr(Et)-D-Leu-D-Lys-4-aminopiperidine-4-carboxamide-Gly-Gly-D-Lys-OH] (I: H-[Api]GG[dK]-OH / II: H-[dF][dY](Et)[dL][dK]; amide I:1-II:C; N-terminus assumed)	10.33	1289.2	–
CCOc1ccc(C[C@@H](NC(=O)[C@H](N)Cc2ccccc2)C(=O)N[C@H](CC(C)C)C(=O)N[C@H](CCCCN)C(=O)N2CCC(N)(C(=O)N[C@@H](CCCCN)C(N)=O)CC2)cc1 [Compound 3, D-Phe-D-Tyr(Et)-D-Leu-D-Lys-4-aminopiperidine-4-carboxamide-Lys-NH2] (H-[dF][dY](Et)[dL][dK]-X6; N-terminus assumed)	10.40	1541.1	–
CC(C)C[C@@H](NC(=O)[C@@H](Cc1ccc(OC(C)C)cc1)NC(=O)[C@H](N)Cc1ccccc1)C(=O)N[C@H](CCCCN)C(=O)N1CCC(N)(C(=O)N[C@@H](CCCCN)C(=O)O)CC1 [Compound 100, D-Phe-D-Tyr(Ipr)-D-Leu-D-Lys-4-aminopiperidine-4-carboxamide-Lys-OH] (H-[dF][dY](iPr)[dL][dK]-X4; N-terminus assumed)	10.15	848.0	–
CCc1ccc(C[C@@H](NC(=O)[C@H](N)Cc2ccccc2)C(=O)N[C@H](CC(C)C)C(=O)N[C@H](CCCCN)C(=O)N2CCC(N)(C(=O)N[C@@H](CCCCN)C(N)=O)CC2)cc1 [Compound 131, D-Phe-D-Phe(4-Et)-D-Leu-D-Lys-4-aminopiperidine-4-carboxamide-Lys-NH2]	9.87	454.5	–
CCOc1ccc(C[C@@H](NC(=O)[C@H](N)Cc2ccccc2)C(=O)N[C@H](CC(C)C)C(=O)N[C@H](CCCCN)C(=O)N2CCC(N)(C(=O)NCC(=O)NCC(=O)NCC(=O)N[C@@H](CCCCN)C(=O)O)CC2)cc1 [Compound 56, D-Phe-D-Tyr(Et)-D-Leu-D-Lys-4-aminopiperidine-4-carboxamide-Gly-Gly-Gly-Lys-OH] (H-[Api]([dK-dL-X12])GGGK-OH; N-terminus assumed)	10.30	1200.0	–
CCOc1ccc(C[C@@H](NC(=O)[C@H](N)Cc2ccccc2)C(=O)N[C@H](CC(C)C)C(=O)N[C@H](CCCCN)C(=O)N2CCC(N)(C(=O)N[C@@H](CCCCN)C(=O)O)CC2)cc1 [Compound 4, D-Phe-D-Tyr(Et)-D-Leu-D-Lys-4-aminopiperidine-4-carboxamide-Lys-OH] (H-[dF][dY](Et)[dL][dK]-X4; N-terminus assumed)	10.40	1521.8	–
CCOc1ccc(C[C@@H](NC(=O)[C@H](N)Cc2ccccc2)C(=O)N[C@H](CC(C)C)C(=O)N[C@H](CCCCN)C(=O)N2CCC(N)(C(=O)N[C@@H](CCCCN)C(=O)N[C@@H](CCCCN)C(=O)O)CC2)cc1 [Compound 6, D-Phe-D-Tyr(Et)-D-Leu-D-Lys-4-aminopiperidine-4-carboxamide-Lys-Lys-OH] (H-[dF][dY](Et)[dL][dK]-X28; N-terminus assumed)	10.40	1510.4	–
Cc1ccc(C[C@@H](NC(=O)[C@H](N)Cc2ccccc2)C(=O)N[C@H](CC(C)C)C(=O)N[C@H](CCCCN)C(=O)N2CCC(N)(C(=O)N[C@@H](CCCCN)C(N)=O)CC2)cc1 [Compound 127, D-Phe-D-Phe(4-Me)-D-Leu-D-Lys-4-aminopiperidine-4-carboxamide-Lys-NH2]	9.80	385.8	–
CC(C)C[C@@H](NC(=O)[C@@H](Cc1ccc(Br)cc1)NC(=O)[C@H](N)Cc1ccccc1)C(=O)N[C@H](CCCCN)C(=O)N1CCC(N)(C(=O)N[C@@H](CCCCN)C(=O)O)CC1 [Compound 118, D-Phe-D-Phe(4-Br)-D-Leu-D-Lys-4-aminopiperidine-4-carboxamide-Lys-OH]	10.20	951.7	–
Cc1ccc(C[C@@H](NC(=O)[C@H](N)Cc2ccccc2)C(=O)N[C@H](CC(C)C)C(=O)N[C@H](CCCCN)C(=O)N2CCC(N)(C(=O)N[C@@H](CCCCN)C(=O)O)CC2)cc1 [Compound 128, D-Phe-D-Phe(4-Me)-D-Leu-D-Lys-4-aminopiperidine-4-carboxamide-Lys-OH]	9.80	380.2	–
CCOc1ccc(C[C@@H](NC(=O)[C@H](N)Cc2ccccc2)C(=O)N[C@H](CC2CC2)C(=O)N[C@H](CCCCN)C(=O)N2CCC(N)(C(=O)N[C@@H](CCCCN)C(N)=O)CC2)cc1 [Compound 69, D-Phe-D-Tyr(Et)-D-cyclopropylalanine-D-Lys-4-aminopiperidine-4-carboxamide-Lys-NH2] (H-[dF][dY](Et)[dAla(cPr)][dK]-X6; N-terminus assumed)	–	1432.1	10.37
CC(C)C[C@@H](NC(=O)[C@@H](Cc1ccc(Cl)cc1)NC(=O)[C@H](N)Cc1ccccc1)C(=O)N[C@H](CCCCN)C(=O)N1CCC(N)(C(=O)N[C@@H](CCCCN)C(=O)O)CC1 [Compound 112, D-Phe-D-Phe(4-C1)-D-Leu-D-Lys-4-aminopiperidine-4-carboxamide-Lys-OH]	10.29	1195.3	–
CCOc1ccc(C[C@@H](NC(=O)[C@H](N)Cc2ccccc2)C(=O)N[C@H](CC(C)C)C(=O)N[C@H](CCCCN)C(=O)N2CCC(N)(C(N)=O)CC2)cc1 [Compound 1, D-Phe-D-Tyr(Et)-D-Leu-D-Lys-4-aminopiperidine-4-carboxylicacid-NH2] (H-[dF][dY](Et)[dL][dK]-{Piperidinyl(4-NH2,4-CONH2)}; N-terminus assumed)	9.94	524.8	–
CCc1ccc(C[C@@H](NC(=O)[C@H](N)Cc2ccccc2)C(=O)N[C@H](CC(C)C)C(=O)N[C@H](CCCCN)C(=O)N2CCC(N)(C(=O)N[C@H](CCCCN)C(N)=O)CC2)cc1 [Compound 133, D-Phe-D-Phe(4-Et)-D-Leu-D-Lys-4-aminopiperidine-4-carboxamide-D-Lys-NH2]	9.88	461.7	–
COc1ccc(C[C@@H](NC(=O)[C@H](N)Cc2ccccc2)C(=O)N[C@H](CC(C)C)C(=O)N[C@H](CCCCN)C(=O)N2CCC(N)(C(=O)N[C@@H](CCCCN)C(N)=O)CC2)cc1 [Compound 87, D-Phe-D-Tyr(Me)-D-Leu-D-Lys-4-aminopiperidine-4-carboxamide-Lys-NH2] (H-[dF][dY](Me)[dL][dK]-X6; N-terminus assumed)	10.37	1438.9	–
CC(C)C[C@@H](NC(=O)[C@@H](Cc1ccc(I)cc1)NC(=O)[C@H](N)Cc1ccccc1)C(=O)N[C@H](CCCCN)C(=O)N1CCC(N)(C(=O)N[C@@H](CCCCN)C(=O)O)CC1 [Compound 124, D-Phe-D-Phe(4-I)-D-Leu-D-Lys-4-aminopiperidine-4-carboxamide-Lys-OH]	10.25	1088.2	–
CCOc1ccc(C[C@@H](NC(=O)[C@H](N)Cc2ccccc2)C(=O)N[C@H](CC(C)C)C(=O)N[C@H](CCCCN)C(=O)N2CCC(N)(C(=O)NCC(=O)NCC(=O)NCC(=O)NCC(=O)N[C@H](CCCCN)C(N)=O)CC2)cc1 [Compound 61, D-Phe-D-Tyr(Et)-D-Leu-D-Lys-4-aminopiperidine-4-carboxamide-Gly-Gly-Gly-Gly-D-Lys-NH2] (H-[Api]([dK-dL-X12])GGGG[dK]-NH2; N-terminus assumed)	10.15	860.1	–
CCOc1ccc(C[C@@H](NC(=O)[C@H](N)Cc2ccccc2)C(=O)N[C@H](CC(C)C)C(=O)N[C@H](CCCCN)C(=O)N2CCC(N)(C(=O)N[C@H](CCCCN)C(=O)N[C@H](CCCCN)C(=O)N[C@H](CCCCN)C(=O)N[C@H](CCCCN)C(N)=O)CC2)cc1 [Compound 21, D-Phe-D-Tyr(Et)-D-Leu-D-Lys-4-aminopiperidine-4-carboxamide-D-Lys-D-Lys-D-Lys-D-Lys -NH2] (H-[Api]([dK-dL-X12])[dK][dK][dK][dK]-NH2; N-terminus assumed)	10.30	1212.0	–
